According to patent EP0536177B1, “THROMBIN INHIBITORS BASED ON THE AMINO ACID SEQUENCE OF HIRUDIN” (MAJESTY (HER) IN RIGHT OF CANADA as represented by THE …, priority 1990, dated 1991):
Where no end group is shown, it is not given here.

Legend:
bovine α-thrombin = biological target: T1, bovine α-thrombin (Bos taurus, UniProt P00735); test: Amidolytic (fluorogenic) assay of thrombin activity, hydrolysis of Tosyl-Gly-Pro-Arg-AMC; format: biochemical; details: mean of three determinations ± SEM, ni: not inhibited
T1 construct: the enzyme (human or bovine α-thrombin 0.4 nM)

human α-thrombin = biological target: T2, human α-thrombin (Homo sapiens, UniProt P00734); test: as above; format: biochemical; details: mean of three determinations ± SEM, ni: not inhibited
T2 construct: the enzyme (human or bovine α-thrombin 0.4 nM)
Description: Thrombin-catalyzed hydrolysis of Tos-Gly-Pro-Arg-pNA was monitored at 405 nm on a Varian Cary 2000 double beam spectrophotometer using substrate concentrations of 2.5, 3.5, 5 and 10 µM in a final volume of 1mL. The hydrolytic reactions were performed at 25°C in 0.1 M Tris-HCl buffer, pH 7.8, containing 0.1 M NaCl and 0.1% PEG 6000. The reactions were initiated by addition of the substrate dissolved in 0.1 M Tris-HCl buffer, pH 7.8 to a preincubated solution of enzyme (0.4 or 0.04 nM) and variable concentrations of inhibitor dissolved in the same buffer. Initial velocities were recorded and Ki values were determined graphically by weighted linear regression of Dixon plots in the case of competitive inhibition, or by the method of Baici (Baici, 1981) for hyperbolic inhibition. Fluorogenic assays were conducted using the same conditions and instrument as above operating in the fluorescence mode in the Ratio (λex=383 nm, λem=455 nm). Fluorescence intensities were calibrated with 7-amino-4-methyl coumarin solution of known concentration. The specificity of the synthetic peptides of the present invention for human α-thrombin may also be determined by comparing their relative inhibitory activities towards both human α-thrombin and bovine α-thrombin and trypsin by comparing K1 values obtained in the amidolytic assay of thrombin activity.

rats = test: Antithrombotic activity in the arteriovenous shunt model; format: in vivo, rat; details: dose which causes a prolongation of the time until occlusion of the shunt by 15 min, 5 min after intravenous administration
Description: The rat anaesthetized with urethane is fixed in supine position on a temperature-controlled heating plate. The right carotid artery and the left jugular vein are catheterized with short polyethylene catheters (Portex, PE 50). The catheters are filled with physiological saline solution and clamped. The two ends of the catheters are connected with a 2-cm glass capillary (internal diameter 1.0 mm) acting as a thrombogenic surface, 5 min after intravenous administration of the test substance or its solvent (control) the clamps occluding the arteriovenous shunt are opened. The blood flowing through the shunt leads to a rapid rise in temperature of the glass capillary from room temperature to body temperature. The temperature of the capillary serves as an indicator for the patency of the shunt. The temperature is measured by means of a NiCrNi-thermo-couple.
Antithrombotic effect of P79 compared to recombinant hirudin in the arteriovenous shunt model in rats 5 min. after intravenous administration (n - number of animals used. Results are shown in Table II below. TABLE II

[1] = Stability of polypeptides in plasma against proteolysis; format: in vitro ADME; details: incubation at 37°C in reconstituted normal human plasma with thromboplastin and calcium chloride, pH 7.8 (Figure 3)
Description: The peptides of this invention were evaluated for in vitro plasma stability against proteolysis.
600 µg of peptide was mixed with 250 µl of reconstituted normal human plasma, 250 µl of thromboplastin, 600 µg of calcium chloride and 50 mM NaHPO4 buffer ph 7.8 to a final volume of 900 µl.
The mixture was incubated at 37°C and 100 µl aliquots were removed at designated time intervals. 20 µl of 10% trichloroacetic acid was added to individual aliquot and centrifuged at 12 X K for 10 minutes. The supernatant was injected on a C18 analytical column and chromatographed by standard elution procedure (i.e. at 60% 0.1% TFA/H2O to 0.1 TFA in CH3CN).

proteolysis [1]	Substance	Ki (bovine α-thrombin) [nM]	Ki (human α-thrombin) [nM]	ED15 (rats) [mg/kg]
	TPKPQSHNDGD [P51, hirudin^45-55]	720 ± 130	110 ± 3	
minimal or no proteolysis	[D-Phe^45,Arg^47,ψ(COCH2)CH2CH2CO^47]hirudin^45-65 [P79]			0.42
